The source of these data is publication PMC4552634, “A New Set of Chemical Starting Points with Plasmodium falciparum Transmission-Blocking Potential for Antimalarial Drug Discovery” (PLoS ONE, 2015).

Read-outs that look alike come from different tables or passages of the source. A value given as a limit tells only on which side of the number the result lay.

Data set [1] can be described thus: Cytotoxicity in HepG2 cells (intracellular ATP, ATPlite, 48 h). It is filed as cell-based, human. Conditions: human, HepG2 cells.
Data set [2] concerns HepG2 cells. The data set is described as above. The class given is cell-based, human. Conditions: IC50 HepG2 divided by IC50 P. falciparum gametocytes.
Data set [3] has as its system P. falciparum stage V gametocytes. Put plainly: Gametocytocidal ATP bioluminescence assay (single point 5 μM and 1 μM, dose-response). The conditions noted are these: for Ratio IC50 HepG2/IC50 P. falciparum: IC50 HepG2 divided by IC50 P. falciparum gametocytes. The class given is cell-based, Plasmodium falciparum.
Description: Purified stage IV-V gametocytes were obtained as previously described [10]. Single point ATP bioluminescence assay and dose–response of positive hits was determined in accordance with the previously published protocol [10].
Data set [4] concerns P. falciparum asexual stages. The conditions noted are these: TCAMS data, cited from earlier work.
Where [5] appears, read: Plasmodium falciparum, P. falciparum gametocytes, average, read-out: IC50 Pf Gametocytes average, IC50 (µM) average.
Where [6] appears, read: sexual stages (gametocytes), dose-response, read-out: IC50 sexual.
Where [7] appears, read: asexual stages, read-out: IC50 asexual.
[8] abbreviates: IC50 per ratio column head, unit inferred, read-out: Cytotoxicity in HepG2.
The mark [9] stands for this setting: P. falciparum asexual stages, read-out: IC50 (µM) Pf asexual stages.

Take `CN1c2ccc([N+](=O)[O-])cc2C(C)(C)C12C=Cc1cc(Br)cc([N+](=O)[O-])c1O2` (stereo not drawn) [TCMDC-124178]: the IC50 in data set [1] (IC50 per ratio column head, unit inferred) was greater than 25000 nM; in data set [3] (setting [5]) it was 1.09 µM; in data set [3] (setting [6]) it was 1.09 µM; in data set [4] (setting [7]) it was 0.785 µM. The “Ratio IC50 HepG2/IC50 P. falciparum” value in data set [2] and in data set [3] was greater than 23 each time.

Regarding `Oc1c(C(Nc2nc3ccccc3s2)c2ccc(OC(F)F)cc2)ccc2cccnc12` (stereo not drawn) [TCMDC-124379], in data set [1] (setting [8]), the IC50 at 48 h was 24.1 µM. Moreover, the “Ratio IC50 HepG2/IC50 P. falciparum” value in data set [2] and in data set [3] was 55 throughout. Besides, the IC50 in data set [3] (setting [5]) is 0.44 µM; in data set [4] (setting [7]) it was 0.571 µM.

On to `Cc1sc2ncnc(Sc3nnc(N)s3)c2c1C` [TCMDC-124542], for which the IC50 at 48 h in data set [1] (setting [8]) was greater than 25 µM. Further, the “Ratio IC50 HepG2/IC50 P. falciparum” value in data set [2] and in data set [3] was greater than 83 throughout. In addition, the IC50 is 0.3 µM in data set [3] (setting [5]), 0.4 µM in data set [4] (setting [9]) and 0.399 µM in data set [4] (setting [7]).

For `CCOc1ccc2nc3cc(NC(=O)c4ccco4)ccc3c(N)c2c1` [TCMDC-125004], the IC50 at 48 h in data set [1] (HepG2, 48 h exposure, intracellular ATP, read-out: IC50 (μM) Cytotoxicity HepG2) was 10 µM; in data set [1] (setting [8]) it was 10.3 µM. Further, the “Ratio IC50 HepG2/IC50 P. falciparum” value in data set [2] and in data set [3] was 56 each time. Further, the IC50 in data set [3] (setting [5]) is 0.19 µM; in data set [3] (Plasmodium falciparum, sexual stages (gametocytes), dose-response, read-out: IC50 sexual), 0.185 µM; in data set [4] (setting [9]), 0.8 µM; in data set [4] (setting [7]), 0.802 µM.

Consider `Oc1ccc(CCNCCCCCCNCCc2ccc(Cl)c3ccccc23)cc1O` [TCMDC-131271], for which the IC50 at 48 h in data set [1] (setting [8]) worked out at 13.5 µM. Further, the “Ratio IC50 HepG2/IC50 P. falciparum” value in data set [2] and in data set [3] was 25 throughout. Moreover, the results for the IC50 in data set [3] (setting [5]), in data set [3] (setting [6]) and in data set [4] (setting [7]) were 0.53 µM, 0.533 µM and 0.716 µM, respectively.

`CCN(CC)C(=NCCCCCCN=C(NC(=N)c1ccc(Cl)cc1)N(CC)CC)NC(=N)c1ccc(Cl)cc1` [TCMDC-131806]: the IC50 at 48 h in data set [1] (setting [8]) amounted to 43.6 µM. In addition, the “Ratio IC50 HepG2/IC50 P. falciparum” value in data set [2] and in data set [3] was 52 each time. In addition, the results for the IC50 in data set [3] (setting [5]) and in data set [4] (setting [7]) were 0.84 µM and 0.381 µM, respectively.

`CCN(CC)C(=NC(=N)NCCCCCCNC(=N)N=C(Nc1ccc(Cl)cc1)N(CC)CC)Nc1ccc(Cl)cc1` [TCMDC-131807]: the IC50 at 48 h in data set [1] (setting [8]) is greater than 25 µM. The “Ratio IC50 HepG2/IC50 P. falciparum” value in data set [2] and in data set [3] was greater than 68 in each case. For the same molecule, the IC50 in data set [3] (setting [5]) is 0.37 µM; in data set [3] (setting [6]) it was 0.365 µM; in data set [4] (setting [7]), 0.927 µM.

For `N=C(N=C(NCCCCCCNC(=NC(=N)Nc1ccc(Cl)cc1)N1CCCCC1)N1CCCCC1)Nc1ccc(Cl)cc1` [TCMDC-131811], in data set [1] (setting [8]), the IC50 at 48 h worked out at 22.9 µM. For the same molecule, the “Ratio IC50 HepG2/IC50 P. falciparum” value in data set [2] and in data set [3] was 61 throughout. The IC50 in data set [3] (setting [5]) was 0.38 µM; in data set [3] (setting [6]) it was 0.375 µM; in data set [4] (setting [7]), 0.256 µM.

Regarding `CC(C)(C)c1ccc(CN2CCC(CNC(=O)c3cc(-c4ccccc4C(F)(F)F)cs3)C2)cc1` (stereo not drawn) [TCMDC-134441], the IC50 at 48 h in data set [1] (setting [8]) was 6.4 µM. Moreover, the “Ratio IC50 HepG2/IC50 P. falciparum” value in data set [3] worked out at 21. The IC50 in data set [3] (setting [5]) is 0.31 µM; in data set [3] (setting [6]), 0.305 µM; in data set [4] (setting [7]), 1.24 µM.

For `CC(C)(C)c1ccc(CN2CCC(CNC(=O)c3cc(-c4cccc(C(F)(F)F)c4)cs3)C2)cc1` (stereo not drawn) [TCMDC-134442], the IC50 at 48 h in data set [1] (setting [8]) was found to be 4.9 µM. Further, the “Ratio IC50 HepG2/IC50 P. falciparum” value in data set [3] was found to be 12. In addition, the values for the IC50 in data set [3] (setting [5]) and in data set [4] (setting [7]) were 0.42 µM and 1.03 µM, respectively.

`CC(C)(C)c1ccc(CN2CCC(CNC(=O)c3cc(-c4ccccc4F)cs3)C2)cc1` (stereo not drawn) [TCMDC-134443]: in data set [1] (setting [8]), the IC50 at 48 h worked out at 7.4 µM. The “Ratio IC50 HepG2/IC50 P. falciparum” value in data set [3] was found to be 22. Besides, the IC50 in data set [3] (setting [5]) was 0.34 µM; in data set [4] (setting [7]), 0.564 µM.

For `CC(C)(C)c1ccc(CN2CCC(CNC(=O)c3cc(-c4ccccc4Cl)cs3)C2)cc1` (stereo not drawn) [TCMDC-134445], the IC50 at 48 h in data set [1] (setting [8]) stood at 8.3 µM. In data set [3], the “Ratio IC50 HepG2/IC50 P. falciparum” value came out at 12. For the same molecule, the IC50 in data set [3] (setting [5]) is 0.69 µM; in data set [4] (setting [7]), 0.856 µM.

As for `COc1cccc(-c2csc(C(=O)NCC3CCN(Cc4ccc(C(C)(C)C)cc4)C3)c2)c1` (stereo not drawn) [TCMDC-134447], the IC50 at 48 h in data set [1] (setting [8]) worked out at 9.5 µM. In data set [3], the “Ratio IC50 HepG2/IC50 P. falciparum” value was 41. For the same molecule, the IC50 in data set [3] (setting [5]) was 0.23 µM; in data set [4] (setting [7]), 1.18 µM.

In the case of `Cl.c1ccc2c(Nc3ccc(Cc4ccc(Nc5c6ccccc6nc6ccccc56)cc4)cc3)c3ccccc3nc2c1` [TCMDC-137354], in data set [1] (setting [8]), the IC50 at 48 h was 4.49 µM. In addition, the “Ratio IC50 HepG2/IC50 P. falciparum” value in data set [3] is reported as 2. Moreover, the IC50 in data set [3] (setting [5]) is 2.3 µM; in data set [4] (setting [7]), 0.162 µM.

`N=C(NCCCCC1CCCCC1)c1cccc(C(=N)NCCCCC2CCCCC2)n1` [TCMDC-137452]: the IC50 at 48 h in data set [1] (setting [8]) worked out at 1.6 µM. The “Ratio IC50 HepG2/IC50 P. falciparum” value in data set [3] was found to be 7. For the same molecule, the figures for the IC50 in data set [3] (setting [5]) and in data set [4] (setting [7]) were 0.22 µM and 0.395 µM, respectively.

On to `CC(CNC(=N)c1cccc(C(=N)NCC(C)Oc2cccc(C3CCCCC3)c2)n1)Oc1cccc(C2CCCCC2)c1.Cl` (stereo not drawn) [TCMDC-137455], for which, in data set [1] (setting [8]), the IC50 at 48 h was 3.53 µM. The “Ratio IC50 HepG2/IC50 P. falciparum” value in data set [3] is given as 15. For the same molecule, the IC50 in data set [3] (setting [5]) was 0.24 µM; in data set [4] (setting [7]), 0.917 µM.

For the molecule `COc1ccc2nc3cc(Cl)ccc3c(NCCCCN3CCNCC3)c2c1` [TCMDC-137578], the IC50 at 48 h in data set [1] (setting [8]) amounted to 5 µM. Besides, the “Ratio IC50 HepG2/IC50 P. falciparum” value in data set [3] is given as 7.58. The results for the IC50 in data set [3] (setting [5]) and in data set [4] (setting [7]) were 0.66 µM and 0.183 µM, respectively.

`COc1ccc2c(c1)CC(C)(C)NC2CCCCCCCCC1NC(C)(C)Cc2cc(OC)ccc21` (stereo not drawn) [TCMDC-137935]: in data set [1] (setting [8]), the IC50 at 48 h is 5.32 µM. Moreover, the “Ratio IC50 HepG2/IC50 P. falciparum” value in data set [3] is reported as 7. The IC50 in data set [3] (setting [5]) was 0.79 µM; in data set [4] (setting [7]) it was 1.3 µM.

Regarding `c1ccc(CN2CCN(CCCCNc3c4ccccc4nc4ccccc34)CC2)cc1` [TCMDC-138009], the IC50 at 48 h in data set [1] (setting [8]) is 9.92 µM. In addition, in data set [3], the “Ratio IC50 HepG2/IC50 P. falciparum” value is 12. For the same molecule, the IC50 in data set [3] (setting [5]) is 0.79 µM; in data set [3] (setting [6]), 0.795 µM; in data set [4] (setting [7]), 0.117 µM.

On to `CCCCCCCCN1CCN(CCCCCCNc2c3ccccc3nc3ccccc23)CC1` [TCMDC-138015], for which the IC50 at 48 h in data set [1] (setting [8]) is 3.1 µM. Further, the “Ratio IC50 HepG2/IC50 P. falciparum” value in data set [3] stood at 12. Further, the IC50 in data set [3] (setting [5]) is 0.25 µM; in data set [4] (setting [7]), 0.162 µM.

Regarding `COc1cc2nc(NCc3cccc(CNC(=O)c4ccc(-c5ccc(C(C)=O)cc5)cc4)c3)nc(N)c2cc1OC.O=C(O)C(F)(F)F` [TCMDC-138177], the IC50 at 48 h in data set [1] (setting [8]) was found to be 9.5 µM. Besides, in data set [3], the “Ratio IC50 HepG2/IC50 P. falciparum” value was determined as 5. Further, the IC50 in data set [3] (setting [5]) is 2 µM; in data set [3] (setting [6]), 2 µM; in data set [4] (setting [7]) it was 0.118 µM.

With `C=C[C@H]1CN(CCCCCCC)CC[C@H]1CCNc1ccnc2ccc(OC)cc12` [TCMDC-139204], the IC50 at 48 h in data set [1] (setting [8]) worked out at 3.4 µM. In data set [3], the “Ratio IC50 HepG2/IC50 P. falciparum” value is listed as 3. Also, the IC50 was 1.08 µM in data set [3] (setting [5]) and 0.062 µM in data set [4] (setting [7]).

As for `COc1cc(NCCCNCc2cn(Cc3cc(Br)cc(Br)c3)c3ccccc23)nc2ccccc12` [TCMDC-140677], in data set [1] (setting [8]), the IC50 at 48 h came out at 6.13 µM. Besides, the “Ratio IC50 HepG2/IC50 P. falciparum” value in data set [3] was 10. Also, the IC50 was 0.59 µM in data set [3] (setting [5]) and 0.185 µM in data set [4] (setting [7]).
